Data as given in paper PMC10165273, “Itch receptor MRGPRX4 interacts with the receptor activity–modifying proteins” (The Journal of Biological Chemistry, 2023).
Where “and” joins values, the source holds several entries; their conditions need not be identical. Identical values can stand only once. Like-named read-outs stand apart in the source and are kept apart here.

Target: T1, MRGPRX4 (Homo sapiens, UniProt Q96LA9)
T1 construct: expressed in transfected cells; host or cells: HEK293T
Experiment: IP1 accumulation HTRF assay, MRGPRX4
Assay type: cell-based
Parameters: key to IP1 Basal / IP1 accumulation with YM (Figure 1c) / response to agonist, MRGPRX4 / IP1 accumulation: % IP1: unstimulated mock-transfected = 0%, fully stimulated MRGPRX4 = 100%
Settings: for activation at 100 µM / activation at 20 µM / activation at 4 µM / activation at 0.8 µM / activation at […] / activation at 0.032 µM: 2 h, read-out: IP1 accumulation (normalized); for activation at 100 µM: log [nateglinide] (M) -4; for activation at 20 µM: log [nateglinide] (M) -4.69897; for activation at 4 µM: log [nateglinide] (M) -5.39794; for activation at 0.8 µM: log [nateglinide] (M) -6.09691; for activation at […]: log [nateglinide] (M) -6.79588; for activation at 0.032 µM: log [nateglinide] (M) -7.49485; for normalized IP1 accumulation: HA-MRGX4-1D4

[1] = Dox 40 ng/mL, Supplementary Figure 5b
[2] = Dox 40 ng/mL, Supplementary Figure 5c
[3] = Dox 1100 ng/mL, Supplementary Figure 5a
[4] = Dox 1100 ng/mL, Supplementary Figure 5b
[5] = Dox 1100 ng/mL, Supplementary Figure 5c
[6] = Dox 3300 ng/mL, Supplementary Figure 5a
[7] = Dox 3300 ng/mL, Supplementary Figure 5b
[8] = Dox 3300 ng/mL, Supplementary Figure 5c
[9] = MRGPRX4 (2pg), Dox 3300ng/mL, Supplementary Figure 5b
[10] = MRGPRX4, Supplementary Figure 5d-g
[11] = Dox 13 ng/mL, Supplementary Figure 5a
[12] = Dox 13 ng/mL, Supplementary Figure 5c
[13] = Dox 40 ng/mL, Supplementary Figure 5a

T1 sequence (Q96LA9 whole entry): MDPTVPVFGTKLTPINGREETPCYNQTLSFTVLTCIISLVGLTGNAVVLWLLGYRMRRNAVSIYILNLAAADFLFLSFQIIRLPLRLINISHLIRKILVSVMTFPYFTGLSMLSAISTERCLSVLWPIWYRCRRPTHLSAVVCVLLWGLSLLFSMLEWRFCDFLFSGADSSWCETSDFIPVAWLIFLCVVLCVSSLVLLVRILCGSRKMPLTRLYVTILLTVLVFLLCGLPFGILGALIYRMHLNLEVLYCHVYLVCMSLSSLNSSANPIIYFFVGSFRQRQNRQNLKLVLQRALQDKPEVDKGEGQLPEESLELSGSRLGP

CC(C)[C@H]1CC[C@H](C(=O)N[C@H](Cc2ccccc2)C(=O)O)CC1 [Nateglinide]
activation at 100 µM [1]: 17.6% | activation at 100 µM [2]: 58% | activation at 100 µM [3]: 97.1% | activation at 100 µM [4]: 25.8% | activation at 100 µM [5]: 81.1% | activation at 100 µM [6]: 100% | activation at 100 µM [7]: 32.5% | activation at 100 µM [8]: 100% | activation at 100 µM [9]: 100% | activation at 100 µM [10]: 100% | activation at 100 µM (MRGPRX4 no dox, Supplementary Figure 5d-g): 1.03% | activation at 100 µM (No Dox, Supplementary Figure 5a): 17% | activation at 100 µM (No Dox, Supplementary Figure 5c): 17% | activation at 20 µM [11]: 62.9% | activation at 20 µM (Dox 13 ng/mL, Supplementary Figure 5b): 6.04% | activation at 20 µM [12]: 25.4% | activation at 20 µM [13]: 71.8% | activation at 20 µM [1]: 8.95% | activation at 20 µM [2]: 33.6% | activation at 20 µM [3]: 83.3% | activation at 20 µM [4]: 17.4% | activation at 20 µM [5]: 57.5% | activation at 20 µM [6]: 86.8% | activation at 20 µM [7]: 23.5% | activation at 20 µM [8]: 74.7% | activation at 20 µM [9]: 86.8% | activation at 20 µM [10]: 96.1% | activation at 4 µM [11]: 29.5% | activation at 4 µM [12]: 4.86% | activation at 4 µM [13]: 32.9% | activation at 4 µM [2]: 7.47% | activation at 4 µM [3]: 46.5% | activation at 4 µM [4]: 4.19% | activation at 4 µM [5]: 20.2% | activation at 4 µM [6]: 44% | activation at 4 µM [7]: 8.69% | activation at 4 µM [8]: 32.8% | activation at 4 µM [9]: 44% | activation at 4 µM [10]: 56.6% | activation at 0.8 µM [11]: 10.1% | activation at 0.8 µM [13]: 12.5% | activation at 0.8 µM [3]: 19.7% | activation at 0.8 µM [5]: 3.18% | activation at 0.8 µM [6]: 19.9% | activation at 0.8 µM [8]: 10.1% | activation at 0.8 µM [9]: 19.9% | activation at 0.8 µM [10]: 23.8% | activation at […] [11]: 5.08% | activation at […] [13]: 6.44% | activation at […] [3]: 11.5% | activation at […] [6]: 11.6% | activation at […] [8]: 7.74% | activation at […] [9]: 11.6% | activation at […] [10]: 11.3% | activation at 0.032 µM [11]: 4.57% | activation at 0.032 µM [13]: 5.36% | activation at 0.032 µM [3]: 10.3% | activation at 0.032 µM [6]: 10.9% | activation at 0.032 µM [8]: 3.46% | activation at 0.032 µM [9]: 10.9% | activation at 0.032 µM [10]: 13.6% | efficacy (Figure 4a bottom, MRGPRX4 alone (reference = 100), individual replicates): 100 | Emax (Figure 4a bottom, MRGPRX4 alone (reference = 100), individual replicates, read-out: efficacy): 100% | EC50 (Figure 4a top, MRGPRX4 alone (no RAMP), individual replicates, read-out: potency (converted)): 7.29 µM and 10.3 µM and 7.1 µM | response to agonist, MRGPRX4 (Figure 4c-f, agonist 100µM, MRGPRX4 alone (reference = 100)): 100 | normalized IP1 accumulation (log [agonist] (M) -4): 81.552 and 83.6202 | normalized IP1 accumulation (log [agonist] (M) -4.69897): 71.4189 and 62.4618 | normalized IP1 accumulation (log [agonist] (M) -5.39794): 34.1012 and 34.3253 | normalized IP1 accumulation (log [agonist] (M) -6.09691): 18.0339 and 19.9037 | normalized IP1 accumulation (log [agonist] (M) -6.79588): 15.3353 and 14.0745 | normalized IP1 accumulation (log [agonist] (M) -7.49485): 14.2615 and 16.0131 | Emax (HEK-293T, MRGPRX4 (Fig. 1A), HEK293T, normalized to 100 μM nateglinide, read-out: IP1 Emax): 103% | Emax (HEK-293T, MRGPRX4 (Fig. 1A), HEK293T, normalized to 100 μM nateglinide, read-out: IP1 span): 87.6% | Emax (MRGPRX4 0.125 pg DNA/cell, individual experiments, read-out: efficacy (Figure 1b bottom)): 77.3% | EC50 (MRGPRX4 0.125 pg DNA/cell, individual experiments, read-out: potency (Figure 1b top) (converted)): 15.9 µM and 12.3 µM and 12.6 µM | Emax (MRGPRX4 0.25 pg DNA/cell, individual experiments, read-out: efficacy (Figure 1b bottom)): 81.4%
